Patent publication US10842807B2, “Methods of treating neurodegenerative disorders comprising DNA methyltransferase inhibitors” (Washington University, priority 2016, dated 2020)
“Also recorded” adds a separate entry of the source.

Experiments:
Format in all cases: cell-based, mouse
[1] = test system: 5-mC in Bdnf promoter IV region; assay: MeDIP-qPCR of Bdnf promoter IV; conditions: Htt-72Q-expressing cortical neurons, 0.2 μM vs DMSO
Text: FIG. 4A-4H illustrate that mutant Htt increased the levels of DNA methylation at Bdnf exon IV regulatory region in primary cortical neurons. (FIG. 4A) Schematic of the mouse Bdnf exon IV regulatory region near the TSS. The positions of CpG sites are indicated relative to the TSS. (FIG. 4B) DIV 5 primary cortical neurons were infected with lentivirus expressing Htt-25Q or Htt-72Q exon 1 fragment; 5 days later, genomic DNA was purified and subjected to bisulfite sequencing analysis. […] Increased DNA methylation was found in mutant Htt-expressing neurons compared to WT Htt-expressing neurons. 28-30 clones from 7 independent experiments were analyzed (See FIG. 11A) for the bisulfite sequencing data from each clone). The number above the black bar (Htt-72Q) represents the fold changes in methylated cytosine relative to the white bar (Htt-25Q) at the indicated position. (FIG. 4C) Genomic DNA was purified from primary cortical neurons transduced as in (B) and subjected to MeDIP with anti-5-mC antibody followed by qPCR. […]
Genomic DNA was isolated from primary cortical neurons using QIAamp DNA Mini Kit (QIAGEN) and fragmented by sonication using Bioruptor (Diagenode). […] The percentage input was calculated by first normalizing IP to input DNA using the formula (2^[(Ct(10% input)-3.32)-Ct(IP)]×100) as described previously^89. […]

[2] = test system: Htt-72Q-expressing primary cortical neurons; assay: MTS cell viability assay in Htt-expressing primary cortical neurons; conditions: for viability of Htt-72Q-expressing neurons (MTS assay): DIV 5 cortical neurons transduced with Htt lentivirus, treated with drug or DMSO (=0 μM), MTS at DIV 14, vs. Htt-72Q (0 μM)
Method: Mouse primary cortical and striatal neurons from embryonic day (E) 15.5 Swiss Webster mouse fetuses (Taconic) were first plated in the minimal essential medium (MEM) containing 10% FBS, 0.45% glucose, 1 mM sodium pyruvate, 2 mM glutamine, 20 U/ml penicillin and 20 μg/ml streptomycin, for 3 h and then maintained in serum-free Neurobasal medium (Life Technologies) containing NeuroCult™ SM1 neuronal supplement ([…] Technologies), 0.5 mM glutamine and 25 μM glutamate for the first 3 d in a humidified incubator (37° C. in 5% CO2). Half of the medium was replaced with Neurobasal medium with SM1 and 0.5 mM glutamine every 3 days. Primary cortical neurons plated on 96-well flat clear bottom black plates (Corning #3904) at 4×10^4 cells/well were infected with Htt exon1 expression lentivirus (Htt-25Q or Htt-72Q) or control empty vector lentivirus at 5 days in vitro (DIV 5). Primary striatal neurons plated on 96-well plates at 1×10^5 cells/well were infected with Htt exon1 expression lentivirus at DIV 4. Viral copy number was adjusted for transduction of neurons on the basis of titer measured using the Lenti-X qRT-PCR titration kit (Clontech), and equal numbers of viral particles of Htt-25Q and Htt-72Q expressing lentiviruses were used for transduction. For the experiments to test effects of DNMT inhibitors, neurons were treated with inhibitors six hours after Htt lentiviral infection. One half of the media was changed every 3 days with media containing new drug. In knockdown experiments in Htt-expressing neurons, primary cortical neurons were cotransduced with Htt-expressing lentivirus and Dnmt shRNA or control shRNA lentivirus at DIV 5. pLKO.1-TRC1-luciferase (Luci) and pLKO.1-TRC2-LacZ were used as control for RNAi with pLKO.1-TRC1-Dnmt3a and pLKO.1-TRC2-Dnmt1, respectively. Lentiviral particles were prepared by transfecting 293LE cells with the lentiviral plasmid of interest along with packaging plasmid psPAX2 and envelope plasmid pCMV-SVG as described previously^86. Four days after transfection, viruses in the conditioned media were collected and purified using Lenti-X Concentrator (Clontech). Primary cortical neurons from BACHD mouse embryos (E15.5) were individually plated into separate wells and treated at DIV 4 with decitabine or vehicle for 3.5 days.

[3] = test system: Htt-72Q-expressing primary striatal neurons; assay: Neurofilament (NF) immunofluorescence, neurite degeneration in striatal neurons; conditions: DIV 4 striatal neurons transduced, fixed seven days later; vs. Htt-72Q (0 μM)
Method: Mouse primary cortical and striatal neurons from embryonic day (E) 15.5 Swiss Webster mouse fetuses (Taconic) were first plated in the minimal essential medium (MEM) containing 10% FBS, 0.45% glucose, 1 mM sodium pyruvate, 2 mM glutamine, 20 U/ml penicillin and 20 μg/ml streptomycin, for 3 h and then maintained in serum-free Neurobasal medium (Life Technologies) containing NeuroCult™ SM1 neuronal supplement ([…] Technologies), 0.5 mM glutamine and 25 μM glutamate for the first 3 d in a humidified incubator (37° C. in 5% CO2). Half of the medium was replaced with Neurobasal medium with SM1 and 0.5 mM glutamine every 3 days. Primary cortical neurons plated on 96-well flat clear bottom black plates (Corning #3904) at 4×10^4 cells/well were infected with Htt exon1 expression lentivirus (Htt-25Q or Htt-72Q) or control empty vector lentivirus at 5 days in vitro (DIV 5). Primary striatal neurons plated on 96-well plates at 1×10^5 cells/well were infected with Htt exon1 expression lentivirus at DIV 4. Viral copy number was adjusted for transduction of neurons on the basis of titer measured using the Lenti-X qRT-PCR titration kit (Clontech), and equal numbers of viral particles of Htt-25Q and Htt-72Q expressing lentiviruses were used for transduction. […]
For the measurement of neurofilament (NF) immunofluorescence intensity, cortical and striatal neurons cultured in a 96-well plate were fixed in 4% paraformaldehyde (PFA) in PBS for 20 min nine and seven days after Htt lentiviral infection, respectively, permeabilized with 0.1% Triton X-100 in PBS for 15 min at room temperature, and subjected to indirect immunofluorescence with anti-NF (2H3) primary antibody and Alexa Fluor 568-conjugated goat anti-mouse IgG secondary antibody (Life Technologies). […] Following image background subtraction, the NF immunofluorescence intensity was quantified using an ImageJ-based macro. Image capture and quantification of Htt (EM48) immunofluorescence intensity were performed as described for those of NF. […] About 300 nuclei from three random fields in a well were counted. […]

[4] = Htt-72Q cortical neurons, MTS assay (FIG. 1B)

SMILES	levels of 5-mC in Bdnf promoter IV region (MeDIP) [1]	viability of Htt-72Q-expressing neurons (MTS assay) [2]	mutant Htt-induced neurite degeneration (NF immunofluorescence intensity), striatal neurons [3]	concentration giving nearly full protection [2, 4]	lowest concentration with significant neuroprotection [2, 4]
Nc1nc(=O)n([C@H]2C[C@H](O)[C@@H](CO)O2)cc1F [FdCyd, 5-fluoro-2′-deoxycytidine]	decreased levels of 5-mC in Bdnf promoter IV region	increased the viability of Htt-72Q-expressing neurons	protected neurons from mutant Htt-induced neurite degeneration	–	–
Nc1ncn([C@H]2C[C@H](O)[C@@H](CO)O2)c(=O)n1 [decitabine, 5-aza-2′-deoxycytidine]	decreased levels of 5-mC in Bdnf promoter IV region	increased the viability of Htt-72Q-expressing neurons; also recorded: increased the viability of mutant Htt-expressing neurons	protected neurons from mutant Htt-induced neurite degeneration	0.2 µM	0.02 µM
